In article PMC7402526, “An in vitro quantitative systems pharmacology approach for deconvolving mechanisms of drug-induced, multilineage cytopenias” (PLoS Computational Biology, 2020):

Legend:
[1] = system: hematopoietic stem cells (HSCs); assay: Multi-lineage toxicity assay (MLTA), HSCs: concentration-response and QSP model fit; assay type: cell-based, human; design: EmaxAP,HSC / EmaxT,HSC / Emax_drug_HSC: unitless, 0–2; ≤1 anti-proliferative, >1 adds cell killing
Procedure: (§1) A custom optimized cytokine cocktail was developed using commercially available cytokines (Peprotech, New Jersey) to facilitate simultaneous multi-lineage differentiation and self-renewal of freeze-thawed primary human bone marrow-derived CD34+ cells in SFEM II media (cells and media from StemCell Technologies, Vancouver). Cultures were carried out in ultra-low attachment 96-well plates (Corning, New York) with test article added on day 0 and cultured at 37°C, 85% relative humidity, and 5% CO2 for six days before interrogating drug impact via 17-parameter flow cytometry.
(§2) The flow cytometry panel used to define hematopoietic subsets was composed of CD34-PECy7, CD90-PECY5, CD38-AF488, CD371-PE, CD45Ra-BV421, CD14-BV605, CD42b-AF647, CD10-PEDazzle594, CD235a-PerCPCy5.5 (BioLegend, California), CD15-BUV395, CD41a-APCH7, CD71-BV786 (BD Biosciences, California), and DAPI for dead cell exclusion (ThermoFisher, California). In short, Day 6 cells were harvested, FcR-blocked (FcR binding inhibitor, ThermoFisher), surface-stained, then analyzed in a buffer containing TruCount Control Beads using a BD LSR Fortessa SORP fitted with a high-throughput sampler (BD Biosciences, California). Data was analyzed in Diva 6.0.2 and exported to CSV where after all cell data was transformed to cell per mL then normalized on a per-donor basis to untreated control wells to determine drug impact.
(§3) Donor material was collected and cultured as described above. The number of replicate donor samples per drug ranged from 2–7 and varied per drug (S1 Table). Drug treatment was added at time 0 and cells were maintained in culture for 6 days. Concentrations tested for each drug compound are contained in S1 Table. Concentrations were selected to span a range that is clinically useful. Following treatment, cell populations were measured using flow cytometry. We extracted cell counts from flow cytometry data, normalized to bead counts, and corrected for well volume.
(§4) Each well was normalized to the average of six vehicle control wells. For drugs that were tested across multiple runs of the assay, vehicle-normalized donor data were pooled, and we used the average of these pooled data for further modeling. Normalized data used as model inputs are included in S1 Table.
(§5) We implemented drug effects using an Emax model for the drug’s effect on each cell type. The 13 maximum effect parameters (EmaxT,C) are unitless and can vary between 0 and 2 and where a subscript, C, represents one of the previously described 13 cell types. We adapted a traditional Emax model using the equations below. We interpreted EmaxT values less than or equal to one as anti-proliferative, and EmaxT values greater than one as indicating a cell-killing mechanism in addition to anti-proliferation. The relationships for these effects are included in the model using the following equations. Eq 2 describes the drug anti-proliferative effect in the net proliferation rate for a given cell type. Eq 3 describes the cell-killing EmaxCK effect.
(§6) Towards the estimation of mechanistic parameters, we considered different formulations: (a) weighting the objective value to prioritize fitting dead cells and (b) using regularization methodology to encourage a parsimonious solution. We assessed the contributions of these formulations using mean-squared error and goodness of fit plots for drugs with known mechanisms. […] Further, we used L1 regularization to penalize parameters […] to help identify a parsimonious set of parameters to explain drug effects.

[2] = system: multi-potent progenitors (MPPs); assay: MLTA, MPPs: concentration-response and QSP model fit; assay type: cell-based, human; settings: Homo sapiens, 144 h
Procedure: as §1, §2, §3, §4, §5, §6

[3] = system: granulocyte progenitor (Gran-lin prog); assay: MLTA, GranP: concentration-response and QSP model fit; assay type: cell-based, human; settings: Homo sapiens, 144 h
Procedure: as §1, §2, §3, §4, §5, §6

[4] = system: neutrophils (neutrophil-lin); assay: MLTA, Neut: concentration-response and QSP model fit; assay type: cell-based, human; settings: Homo sapiens, Neutrophil, 144 h
Procedure: as §1, §2, §3, §4, §5, §6

[5] = system: early erythroid cells (Eryth I); assay: MLTA, ErythI: concentration-response and QSP model fit; assay type: cell-based, human; settings: Homo sapiens, 144 h
Procedure: as §1, §2, §3, §4, §5, §6

[6] = system: late erythroid cells (Eryth II); assay: MLTA, ErythII: concentration-response and QSP model fit; assay type: cell-based, human; settings: Homo sapiens, 144 h
Procedure: as §1, §2, §3, §4, §5, §6

[7] = system: total viable cells (totalViableCells); assay: MLTA, total live cells concentration-response; assay type: cell-based; settings: Homo sapiens, 144 h, 6 days, normalized to vehicle control, read-out: total_live normalized cell count
Procedure: as §1, §2, §3, §4

CCN1CCN(Cc2ccc(Nc3ncc(F)c(-c4cc(F)c5nc(C)n(C(C)C)c5c4)n3)nc2)CC1 [abemaciclib]
EC50 ([1]; Homo sapiens, Hematopoietic stem cell, 144 h, QSP model fit of 6-day MLTA data): 111 nM
activity at 0.0002 µM ([1]; Homo sapiens, Hematopoietic stem cell, 144 h, dose 0.2 nM, 6 days, normalized to vehicle control, read-out: HSCs normalized cell count): 89.3%
activity at 0.001 µM ([1]; Homo sapiens, Hematopoietic stem cell, 144 h, dose 1 nM, 6 days, normalized to vehicle control, read-out: HSCs normalized cell count): 103%
activity at 0.005 µM ([1]; Homo sapiens, Hematopoietic stem cell, 144 h, dose 5 nM, 6 days, normalized to vehicle control, read-out: HSCs normalized cell count): 98.4%
activity at 0.025 µM ([1]; Homo sapiens, Hematopoietic stem cell, 144 h, dose 25 nM, 6 days, normalized to vehicle control, read-out: HSCs normalized cell count): 66.7%
activity at 0.1 µM ([1]; Homo sapiens, Hematopoietic stem cell, 144 h, dose 100 nM, 6 days, normalized to vehicle control, read-out: HSCs normalized cell count): 25.9%
activity at 0.5 µM ([1]; Homo sapiens, Hematopoietic stem cell, 144 h, dose 500 nM, 6 days, normalized to vehicle control, read-out: HSCs normalized cell count): 5.33%
activity at 2.5 µM ([1]; Homo sapiens, Hematopoietic stem cell, 144 h, dose 2500 nM, 6 days, normalized to vehicle control, read-out: HSCs normalized cell count): 2.74%
Emax ([1]; Homo sapiens, Hematopoietic stem cell, 144 h, parameter from QSP model fitting, read-out: Emax_drug_HSC): 91%
EmaxAP,HSC ([1]; anti-proliferation component, min(1, EmaxT)): 0.910
activity at 0.0002 µM ([2]; dose 0.2 nM, 6 days, normalized to vehicle control, read-out: MPPs normalized cell count): 102%
activity at 0.001 µM ([2]; dose 1 nM, 6 days, normalized to vehicle control, read-out: MPPs normalized cell count): 98.3%
activity at 0.005 µM ([2]; dose 5 nM, 6 days, normalized to vehicle control, read-out: MPPs normalized cell count): 80.3%
activity at 0.025 µM ([2]; dose 25 nM, 6 days, normalized to vehicle control, read-out: MPPs normalized cell count): 44.3%
activity at 0.1 µM ([2]; dose 100 nM, 6 days, normalized to vehicle control, read-out: MPPs normalized cell count): 24.8%
activity at 0.5 µM ([2]; dose 500 nM, 6 days, normalized to vehicle control, read-out: MPPs normalized cell count): 27.6%
activity at 2.5 µM ([2]; dose 2500 nM, 6 days, normalized to vehicle control, read-out: MPPs normalized cell count): 3.6%
Emax ([2]; parameter from QSP model fitting, read-out: Emax_drug_MPP): 0.16%
activity at 0.0002 µM ([3]; dose 0.2 nM, 6 days, normalized to vehicle control, read-out: GranPs normalized cell count): 95.1%
activity at 0.001 µM ([3]; dose 1 nM, 6 days, normalized to vehicle control, read-out: GranPs normalized cell count): 100%
activity at 0.005 µM ([3]; dose 5 nM, 6 days, normalized to vehicle control, read-out: GranPs normalized cell count): 86.6%
activity at 0.025 µM ([3]; dose 25 nM, 6 days, normalized to vehicle control, read-out: GranPs normalized cell count): 52%
activity at 0.1 µM ([3]; dose 100 nM, 6 days, normalized to vehicle control, read-out: GranPs normalized cell count): 24.8%
activity at 0.5 µM ([3]; dose 500 nM, 6 days, normalized to vehicle control, read-out: GranPs normalized cell count): 2.43%
activity at 2.5 µM ([3]; dose 2500 nM, 6 days, normalized to vehicle control, read-out: GranPs normalized cell count): 0.0287%
Emax ([3]; parameter from QSP model fitting, read-out: Emax_drug_GranP): 0.23%
EC50 ([4]; QSP model fit of 6-day MLTA data): 66.2 nM
activity at 0.0002 µM ([4]; dose 0.2 nM, 6 days, normalized to vehicle control, read-out: Neut normalized cell count): 99.5%
activity at 0.001 µM ([4]; dose 1 nM, 6 days, normalized to vehicle control, read-out: Neut normalized cell count): 100%
activity at 0.005 µM ([4]; dose 5 nM, 6 days, normalized to vehicle control, read-out: Neut normalized cell count): 86.7%
activity at 0.025 µM ([4]; dose 25 nM, 6 days, normalized to vehicle control, read-out: Neut normalized cell count): 30.8%
activity at 0.1 µM ([4]; dose 100 nM, 6 days, normalized to vehicle control, read-out: Neut normalized cell count): 4.02%
activity at 0.5 µM ([4]; dose 500 nM, 6 days, normalized to vehicle control, read-out: Neut normalized cell count): 0.252%
activity at 2.5 µM ([4]; dose 2500 nM, 6 days, normalized to vehicle control, read-out: Neut normalized cell count): 0.0296%
Emax ([4]; parameter from QSP model fitting, read-out: Emax_drug_Neut): 23.5%
EC50 ([5]; QSP model fit of 6-day MLTA data, read-out: EC50ErythI): 29.2 nM
activity at 0.0002 µM ([5]; dose 0.2 nM, 6 days, normalized to vehicle control, read-out: ErythI normalized cell count): 107%
activity at 0.001 µM ([5]; dose 1 nM, 6 days, normalized to vehicle control, read-out: ErythI normalized cell count): 116%
activity at 0.005 µM ([5]; dose 5 nM, 6 days, normalized to vehicle control, read-out: ErythI normalized cell count): 97.8%
activity at 0.025 µM ([5]; dose 25 nM, 6 days, normalized to vehicle control, read-out: ErythI normalized cell count): 47.1%
activity at 0.1 µM ([5]; dose 100 nM, 6 days, normalized to vehicle control, read-out: ErythI normalized cell count): 20.1%
activity at 0.5 µM ([5]; dose 500 nM, 6 days, normalized to vehicle control, read-out: ErythI normalized cell count): 4.76%
activity at 2.5 µM ([5]; dose 2500 nM, 6 days, normalized to vehicle control, read-out: ErythI normalized cell count): 0.613%
Emax ([5]; parameter from QSP model fitting, read-out: Emax_drug_ErythroidI): 102%
EC50 ([6]; QSP model fit of 6-day MLTA data, read-out: EC50ErythII): 45.1 nM
activity at 0.0002 µM ([6]; dose 0.2 nM, 6 days, normalized to vehicle control, read-out: ErythII normalized cell count): 96.2%
activity at 0.001 µM ([6]; dose 1 nM, 6 days, normalized to vehicle control, read-out: ErythII normalized cell count): 112%
activity at 0.005 µM ([6]; dose 5 nM, 6 days, normalized to vehicle control, read-out: ErythII normalized cell count): 106%
activity at 0.025 µM ([6]; dose 25 nM, 6 days, normalized to vehicle control, read-out: ErythII normalized cell count): 57.9%
activity at 0.1 µM ([6]; dose 100 nM, 6 days, normalized to vehicle control, read-out: ErythII normalized cell count): 20.4%
activity at 0.5 µM ([6]; dose 500 nM, 6 days, normalized to vehicle control, read-out: ErythII normalized cell count): 1.77%
activity at 2.5 µM ([6]; dose 2500 nM, 6 days, normalized to vehicle control, read-out: ErythII normalized cell count): 0.0231%
Emax ([6]; parameter from QSP model fitting, read-out: Emax_drug_ErythroidII): 3.33%
viability at 0.0002 µM ([7]; dose 0.2 nM): 99.1%
viability at 0.001 µM ([7]; dose 1 nM): 108%
viability at 0.005 µM ([7]; dose 5 nM): 96%
viability at 0.025 µM ([7]; dose 25 nM): 47.7%
viability at 0.1 µM ([7]; dose 100 nM): 17.4%
viability at 0.5 µM ([7]; dose 500 nM): 3.05%
viability at 2.5 µM ([7]; dose 2500 nM): 0.301%
